Experimental findings from US20250320246A1, “3-AZASTEROID COMPOUNDS FOR THE TREATMENT OF DISEASES RELATED TO MITROCHONDRIAL FUNCTION” (NZP UK LIMITED, priority 2022, published 2025) are described below.

The EC50 is the concentration at which the effect is half-maximal.

What all share (assay type): cell-based, human
Experiment [1] has as its system iNeurons from sPD patients. Briefly: Mitochondrial membrane potential (MMP) in iNeurons from sPD patients. The note with it: for EC50: Homo sapiens, sPD patient iNeurons, dosing every 3 days for last 12 days of differentiation; for MMP normalisation (% of controls): sPD patient iNeurons treated, untreated sPD patients 52. On the procedure: (§1) The fibroblasts lines and iNPC lines have previously been characterised and published in Carling et al, 2020.
(§2) Briefly, iNPCs are plated in a 6-well plate and cultured for 2 days in DMEM/F-12 medium with Glutamax™ supplemented with 1% NEAA, 2% B27 (Gibco) and 2.5 μM of DAPT. On day 3, DAPT is removed and the medium is supplemented with 1 μM smoothened agonist (SAG) and FGF8 (75 ng/ml) for additional 10 days. Neurons are replated at this stage. Subsequently SAG and FGF8 are withdrawn and replaced with BDNF (30 ng/ml), GDNF (30 ng/ml), TGF-b3 ([…]) and dcAMP (2 mM, Sigma) for 15 days, as previously described Schwartzentruber et al, 2020 and Carling et al, 2020. Dopaminergic neurons were treated with compounds at concentrations of 0.1 nM, 1 nM, 3 nM, 10 nM, 30 nM and 100 nM dosing every 3 days for the last 12 days of differentiation.
(§3) iNeurons were treated every 3 days for the last 12 days of the differentiation protocol. Cells are plated in 96 well plates; for live imaging cells are incubated for one hour at 37° C. with 80 nM tetramethlyrhodamine (TMRM), 1 μM LysoTracker® Green (Invitrogen) and Hoechst Stain solution (Sigma) at 1 μM before imaging using Opera Phenix™. Cellular ATP measurements are undertaken using ATPlite kit (Perkin Elmer) as per manufacturer's instructions. Mitochondrial reactive oxygen species generation was assessed using mitochondrial NpFR2 (probe; a kind gift from Dr Liz New, University of Sydney, Australia) at 20 μM and Hoechst stain solution at 1 μM for 30 mins at 37° C., then the dyes are removed and cells images using Opera Phenix™. Images generated from the live imaging experiments were analysed using Harmony® (Perkin Elmer software). We developed protocols in order to segment nucleus, cell boundary and processes, mitochondria, lysosomes, autophagosomes. We only analysed the z projection images collected from the z stacks.

Experiment [2] has as its system iNeurons from sPD patients. Briefly: Mitochondrial reactive oxygen species (ROS) in iNeurons from sPD patients. Conditions: sPD patient iNeurons treated; untreated sPD patients 115. The protocol: as §1, §2, §3
Experiment [3] deals with sporadic PD patient fibroblasts. Briefly: Cellular ATP levels in sporadic PD patient fibroblasts, Preliminary ATP assay. The note with it: Homo sapiens, Fibroblast, 24 h, % of vehicle treated sPD fibroblasts, 3 sporadic PD patients. The protocol: In some cases, a preliminary ATP protocol was used in which EC50 was not determined. The preliminary ATP protocol is generally as described in Mortiboys et al 2008. Briefly, fibroblasts were cultured and plated into white, clear-bottom 384 well plates at a concentration of 4000 cells per well in 50 μl of media volume. The plates are left overnight in an incubator to allow the fibroblasts to adhere to the plate surface. The following morning the Glucose based medium is replaced with 25 μl of Galactose based medium. The cells were then dosed with 100 nM and 1 μM concentrations of the compounds using a ECHO 550 liquid handling system. After dosing the wells are topped up with a further 25 μl of Galactose based medium and then left in an incubator for 24 hours. Following this incubation, the medium is removed from the plate and the wells are washed twice with sterile PBS. The wells are filled with 20 μl of Sterile PBS followed by 10 μl of Lysis solution from the ATPlite™ Luminescence ATP detection assay system (Perkin Elmer), including 14 cell free wells to use as blank controls. The plate is then placed on a rotary shaker for 10 mins at 700 rpm. Following the shaking 10 μl of ATP substrate solution (Perkin Elmer) is added to each well and a further 5 min of shaking. The plate is then incubated in the dark for 10 minutes prior to reading. Using a FLUOstar® Omega plate reader, luminescence intensity is recorded. Following the ATP assay the plates are immediately assayed for DNA content in a CyQUANT® assay.
Immediately following The ATP assay DNA content is assessed with the CyQUANT® NF Cell Proliferation Assay Kit (ThermoFisher). CyQUANT® buffer is prepared immediately before the assay and is comprised of 2 μl CyQUANT® dye per ml×1 HBSS solution. 10 μl of CyQUANT® buffer is added to each well. Cell plates were then incubated for 1 hour before being read on a FLUOStar® Plate reader with excitation at 497 nm and emission at 520 nm.
The ATP Quantification for each well is determined as set out above.

The subject of experiment [4] is iNeurons from sPD patients. Briefly: Neuronal morphology (elongation) in iNeurons from sPD patients. The note with it: sPD patient iNeurons treated; untreated sPD patients 48. The protocol:
as §1, §2
(§4) Cells are plated into 96 well plates and fixed using 4% paraformaldehyde for 30 minutes. After PBS washes cells are permeabilised using 0.1% Triton™ X-100 for 10 minutes and blocked using 5% goat serum for 1 hour. Cells are incubated with primary antibodies βIII tubulin (Millipore); activated caspase 3 (Cell Signaling); at 4° C. for 16 hours. Cells are washed using PBS-Tween® and incubated with Alexa Fluor™-conjugated secondary antibodies 488 and 568 (Invitrogen) and Hoescht (Sigma) 1 μM prior to imaging. Imaging was performed using the Opera Phenix™ high content imaging system (Perkin Elmer).
iNeurons were treated every 3 days for the last 12 days of the differentiation protocol. […] Mitochondrial reactive oxygen species generation was assessed using mitochondrial NpFR2 (probe; a kind gift from Dr Liz New, University of Sydney, Australia) at 20 μM and Hoechst stain solution at 1 μM for 30 mins at 37° C., then the dyes are removed and cells images using Opera Phenix™. Images generated from the live imaging experiments were analysed using Harmony® (Perkin Elmer software). […] We only analysed the z projection images collected from the z stacks.

For experiment [5], the system named is iNeurons from sPD patients. Briefly: Cellular ATP in iNeurons (dopaminergic neurons derived from sPD patients). Conditions: for EC50: Homo sapiens, Neuron, sPD patient iNeurons, dosing every 3 days for last 12 days of differentiation; for ATP normalisation (% of controls): sPD patient iNeurons treated, untreated sPD patients 50. The protocol: as §1, §2, §3

The subject of experiment [6] is iNeurons from sPD patients. Briefly: Activated caspase 3 levels (apoptosis) in iNeurons from sPD patients. The note with it: sPD patient iNeurons treated; untreated sPD patients 162. On the procedure:
as §1, §2, §4

Experiment [7] relates to sporadic PD patient fibroblasts. Briefly: Cellular ATP levels in sporadic PD patient fibroblasts, full ATP assay. Conditions: Homo sapiens, Fibroblast, 24 h, 3 sporadic PD patient fibroblasts. On the procedure: (§5) Primary fibroblast cells were cultured continuously in Glucose based medium (high glucose (4500 mg/L) Dulbecco's Modified Eagle's medium (DMEM; Sigma-Aldrich) supplemented with 10% fetal bovine serum (Sigma-Aldrich), 100 IU/mL penicillin, 100 μg/mL streptomycin (Lonza), 1 mM sodium pyruvate (Sigma-Aldrich) and 50 μg/mL uridine (Sigma-Aldrich)). Unless otherwise stated, 24 hours prior to analysis, the Glucose based medium was exchanged for Galactose based medium (glucose-free DMEM (Gibco) with the same supplementation and in addition, 5 mM galactose (Sigma-Aldrich)). All cells were assessed between passage 6-10.
The ATP protocol is generally as described in Mortiboys et al 2008. Briefly, fibroblasts were cultured as and plated into white 384 well plates at a concentration of 5000 cells per well in 50 μl of media volume. The plates are left overnight in an incubator to allow the fibroblasts to adhere to the plate surface. The following morning the Glucose based medium is replaced with 25 μl of Galactose based medium. The plates were then spiked with the compounds using a ECHO 550 liquid handling system. The wells were dosed to provide an 8-point concentration range of 0.06 nM-300 nM of compound. After dosing the wells are topped up with a further 25 μl of Galactose based medium and then left in an incubator for 24 hours. Following this incubation, the medium is removed from the plate and the wells are washed twice with sterile PBS. The wells are filled with 25 μl of Sterile PBS followed by 12.5 μl of Lysis solution from the ATPlite™ Luminescence ATP detection assay system (Perkin Elmer), including 16 cell free wells to use as blank controls. The plate is then placed on a rotary shaker for 5 mins at 700 rpm. Following the shaking 12.5 μl of ATP substrate solution (Perkin Elmer) is added to each well and a further 5 min of shaking. The plate is then placed in darkness for 10 minutes prior to reading. Using a PHERAStar® plate reader, luminescence intensity is recorded. Following the ATP assay the plates are immediately assayed for DNA content in a CyQUANT® assay.
Immediately following The ATP assay DNA content is assessed with the CyQUANT® NF Cell Proliferation Assay Kit (ThermoFisher). CyQUANT® buffer is prepared immediately before the assay and is comprised of 1 μl CyQUANT® dye per ml×1 HBSS solution. 12.5 μl of CyQUANT® buffer is added to each well. Plate left in incubator for 1 hour then read on a PHERAStar© Plate reader with excitation at 497 nm and emission at 520 nm.
ATP Quantification for each well is determined using the following formula: […]
After the assays had been repeated in triplicate per line and compound the data was then inputted into Graph pad Prism 7 software suite where a dose response curve is generated using the default “[Agonist] vs response(three parameters)” equation.
From this EC50 values, lowest response and maximal response were taken and used to calculate the Geometric mean between the 5 different lines assessed.

Experiment [8] shares this test system. Briefly: Mitochondrial membrane potential (MMP, TMRM) in sporadic PD patient fibroblasts. The note with it: Homo sapiens, Fibroblast, 24 h, 3 sporadic PD patient fibroblasts. The protocol: as §5
Fibroblasts were cultured and plated into a greiner black 384 μClear® plate at a concentration of 1000 cells per well in 50 μl of media volume. The plates are left overnight in an incubator to allow the fibroblasts to adhere to the plate surface. The following morning the Glucose based medium is replaced with 25 μl of Galactose based medium. The plates were then dosed with the compounds using an ECHO® 550 liquid handling system. The wells were dosed to provide an 8-point concentration range of 0.06 nM-300 nM of compound. After dosing the wells are topped up with a further 25 μl of Galactose based medium and then left in an incubator for 24 hours. After 24 hours, the medium is removed from the wells and replaced with 25 μl phenol free Minimal essential medium supplemented with 10% FBS, 1% Penicillin-streptomycin, 1% sodium pyruvate, 0.1% uridine, 1% non-essential amino acids and 1% MEM vitamins with 80 nM TMRM (Sigma) and 10 μM Hoechst Stain (Sigma). The plate is returned to the incubator for another hour after which the stain medium is removed and replaced with 25 μl Phenol free MEM. The plate is then imaged using an IN Cell high content microscope (GE Healthcare) with fields of view per well in 2 channels, Cy3 excitation 542 nm, emission 604-64 nm; and the DAPI excitation 350 nm, emission 450-55 nm at 37° C. with CO2. After imaging the plate is disposed of and the images are Data mined using the INCell developer Toolkit (GE Healthcare).
After the assays had been repeated in triplicate per line and compound the data was then inputted into Graph pad Prism 7 software suite where a dose response curve is generated using the default “[Agonist] vs response(three parameters)” equation. […]

Turning to `C[C@H](CCC(=O)O)[C@H]1CC[C@H]2[C@@H]3[C@@H](O)C[C@@H]4C[C@H](O)CC[C@]4(C)[C@H]3CC[C@]12C` [UDCA, ursodeoxycholic acid, reference compound], in experiment [1], the EC50 stood at 7.3 nM and the “MMP normalisation (% of controls)” value is on record as 73 % of controls. Besides, in experiment [2], the “ROS normalisation (% of controls)” value is 110 % of controls. Besides, the activity at 0.1 µM in experiment [3] (100 nM, read-out: Average ATP Response 100 nM) was found to be 105%. Besides, in experiment [3] (1 μM, read-out: Average ATP Response 1 μM), the activity at 1 µM is 98.9%. Further, the “Neuronal morphology (elongation; % controls)” value in experiment [4] is recorded as 64 % controls. Further, in experiment [5], the midpoint of the response, the EC50, lay at 5 nM and the “ATP normalisation (% of controls)” value is recorded as 82 % of controls. Besides, the “Activated caspase 3 levels” value in experiment [6] is listed as 143 % of level in iNeurons from Controls.

Regarding `C[C@H](CCC(=O)O)[C@H]1CC[C@H]2[C@@H]3[C@@H](O)C[C@@H]4CNCC[C@]4(C)[C@H]3CC[C@]12C.Cl` [Compound 28a, 3-Aza-7β-hydroxy-5β-cholan-24-oic acid hydrochloride salt], the concentration giving a half-maximal response (EC50) is 10.3 nM in experiment [1], 10.9 nM in experiment [7] (8-point range 0.06 nM-300 nM), 4.58 nM in experiment [8] (8-point range 0.06 nM-300 nM) and 6.5 nM in experiment [5]. Moreover, in experiment [1], the “MMP normalisation (% of controls)” value is 71 % of controls. The Emax at 0.3 µM in experiment [7] (max response with highest dose of compound (300 nM), read-out: ATP % of vehicle, top %) is 137%. Further, the activity at 60 pM in experiment [7] (max response with lowest dose of compound (0.06 nM), read-out: ATP % of vehicle, bottom %) stood at 98.3%; in experiment [8] (max response with lowest dose of compound (0.06 nM), read-out: MMP % of vehicle, bottom %), 96.8%. Further, the “ROS normalisation (% of controls)” value in experiment [2] is recorded as 111 % of controls. Moreover, the Emax in experiment [8] (max response with highest dose of compound (300 nM), read-out: MMP % of vehicle, top %) was found to be 120%. Besides, the “ATP normalisation (% of controls)” value in experiment [5] was 89.6 % of controls.
